The IC50 is the concentration that inhibits the measured activity by half.

In this test the target is T1, human kinase Mps-1 (Homo sapiens, UniProt P33981).
T1 construct: N-terminally GST-tagged human full length recombinant Mps-1 kinase; purchased Invitrogen, Karslruhe, Germany PV4071
T1 sequence (P33981 1-857): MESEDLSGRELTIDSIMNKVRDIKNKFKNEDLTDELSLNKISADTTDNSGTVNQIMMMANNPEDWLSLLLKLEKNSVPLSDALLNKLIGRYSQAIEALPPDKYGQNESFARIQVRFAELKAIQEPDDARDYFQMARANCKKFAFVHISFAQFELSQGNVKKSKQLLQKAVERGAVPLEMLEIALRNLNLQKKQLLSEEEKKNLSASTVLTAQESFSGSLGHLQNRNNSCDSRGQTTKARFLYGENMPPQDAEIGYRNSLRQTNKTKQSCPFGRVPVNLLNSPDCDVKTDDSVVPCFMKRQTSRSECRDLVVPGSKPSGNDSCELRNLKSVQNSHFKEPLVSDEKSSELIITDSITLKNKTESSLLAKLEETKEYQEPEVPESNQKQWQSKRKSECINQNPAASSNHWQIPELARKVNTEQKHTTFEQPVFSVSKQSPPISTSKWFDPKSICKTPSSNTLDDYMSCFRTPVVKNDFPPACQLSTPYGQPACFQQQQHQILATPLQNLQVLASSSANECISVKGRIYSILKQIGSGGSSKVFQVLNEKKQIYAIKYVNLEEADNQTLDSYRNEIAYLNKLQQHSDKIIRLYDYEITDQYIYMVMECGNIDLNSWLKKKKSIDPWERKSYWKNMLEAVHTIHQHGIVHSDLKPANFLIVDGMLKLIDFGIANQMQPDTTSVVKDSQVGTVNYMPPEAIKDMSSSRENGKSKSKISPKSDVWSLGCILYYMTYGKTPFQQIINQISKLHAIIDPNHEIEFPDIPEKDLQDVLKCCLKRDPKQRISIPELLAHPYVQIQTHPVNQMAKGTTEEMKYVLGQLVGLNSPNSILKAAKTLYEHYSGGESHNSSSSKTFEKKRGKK
The test is described as follows: Mps-1 kinase assay (HTRF). The class given is biochemical. The note with it: lowATP; mean; read-out: Mps1 lowATP mean IC50. The method in brief: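 HTRF readout: EDTA-stopped reactions incubated 1 h with europium anti-phospho(Ser/Thr) antibody and streptavidin-XLent, emission ratio 665/620 nm after 350 nm excitation. Kinase step: compound pre-bound 15 min to ~1 nM GST-Mps-1, then 60 min at 22 °C with ATP and biotin-peptide substrate; inhibition scaled between no-inhibitor (0%) and no-enzyme (100%) controls.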
In general terms: Time-resolved FRET reads energy transfer from a long-lived donor to a nearby acceptor.
For the molecule `Cc1cc2nc(NCCCCO)c3ncc(-c4ccc(C(=O)NC5CC5)c(Cl)c4)n3c2cc1C` [Example 2-184, 2-chloro-N-cyclopropyl-4-{4-[(4-hydroxybutyl)amino]-7,8-dimethylimidazo[1,2-a]quinoxalin-1-yl}benzamide], the IC50 stood at 0.033 µM. For `Cc1cc2nc(NCCO)c3ncc(-c4ccc(C(=O)NC5CC5)c(Cl)c4)n3c2cc1C` [Example 2-179, 2-chloro-N-cyclopropyl-4-{4-[(2-hydroxyethyl)amino]-7,8-dimethylimidazo[1,2-a]quinoxalin-1-yl}benzamide] the value was 0.13 µM; for `COCCCNc1nc2ccc(F)cc2n2c(-c3ccc(C(=O)NC4CC4)c(Cl)c3)cnc12` [Example 2-83, 2-chloro-N-cyclopropyl-4-{8-fluoro-4-[(3-methoxypropyl)amino]imidazo[1,2-a]quinoxalin-1-yl}benzamide], 6.7 µM.

As for `Cc1ccc(-c2cnc3c(NCC(C)C)nc4ccccc4n23)cn1` [Example 1-45, N-(2-methylpropyl)-1-(6-methylpyridin-3-yl)imidazo[1,2-a]quinoxalin-4-amine], the half-maximal inhibitory concentration (IC50) is 8.19 µM. For the molecule `N#Cc1ccc2c(c1)nc(NCC(F)(F)F)c1ncc(-c3ccc(C(=O)NC4CC4)cc3)n12` [Example 2-209, 4-{7-cyano-4-[(2,2,2-trifluoroethyl)amino]imidazo[1,2-a]quinoxalin-1-yl}-N-cyclopropylbenzamide], the IC50 came out at 0.0289 µM. For `CCCCNc1nc2ccc(F)cc2n2c(-c3ccc(C(=O)NC4CC4)cc3)cnc12` [Example 2-51, 4-[4-(butylamino)-8-fluoroimidazo[1,2-a]quinoxalin-1-yl]-N-cyclopropylbenzamide] the value was 0.0392 µM; for `CNC(=O)Nc1ccc(-c2cnc3c(NCCCCO)nc4ccc(F)cc4n23)cc1` [Example 2-63, 1-(4-{8-fluoro-4-[(4-hydroxybutyl)amino]imidazo[1,2-a]quinoxalin-1-yl}phenyl)-3-methylurea], 1.63 µM; for `N#Cc1ccc2c(c1)nc(NCc1ccccc1)c1ncc(-c3ccc(C(=O)NC4CC4)c(Cl)c3)n12` [Example 2-240, 4-[4-(benzylamino)-7-cyanoimidazo[1,2-a]quinoxalin-1-yl]-2-chloro-N-cyclopropylbenzamide], 0.889 µM.

Turning to `O=C(NC1CC1)c1ccc(-c2cnc3c(NCc4ccncc4)nc4ccc(F)cc4n23)cc1Cl` [Example 2-82, 2-chloro-N-cyclopropyl-4-{8-fluoro-4-[(pyridin-4-ylmethyl)amino]imidazo[1,2-a]quinoxalin-1-yl}benzamide], the IC50 was determined as 1.09 µM. Turning to `Cc1cc2nc(NCCC(N)=O)c3ncc(-c4ccc(C(=O)NC5CC5)c(Cl)c4)n3c2cc1C` [Example 2-195, 4-{4-[(3-amino-3-oxopropyl)amino]-7,8-dimethylimidazo[1,2-a]quinoxalin-1-yl}-2-chloro-N-cyclopropylbenzamide], the half-maximal inhibitory concentration (IC50) came out at 0.218 µM. For `CC(C)CNc1nc2ccccc2n2c(-c3ccc4c(c3)OCCO4)cnc12` [Example 1-4, 1-(2,3-dihydro-1,4-benzodioxin-6-yl)-N-(2-methylpropyl)imidazo[1,2-a]quinoxalin-4-amine] the value was 2.86 µM; for `O=C(NC1CC1)c1ccc(-c2cnc3c(NCCCO)nc4ccc(F)cc4n23)cc1` [Example 2-50, N-cyclopropyl-4-{8-fluoro-4-[(3-hydroxypropyl)amino]imidazo[1,2-a]quinoxalin-1-yl}benzamide], 0.154 µM. The value for `CSc1ccc(-c2cnc3c(NCC(C)C)nc4ccccc4n23)cc1` [Example 1-10, N-(2-methylpropyl)-1-[4-(methylsulfanyl)phenyl]imidazo[1,2-a]quinoxalin-4-amine] was 3.34 µM. In the case of `CC(C)CNc1nc2ccccc2n2c(-c3ccc4[nH]ncc4c3)cnc12` [Example 1-48, 1-(1H-indazol-5-yl)-N-(2-methylpropyl)imidazo[1,2-a]quinoxalin-4-amine], the IC50 was found to be 4.53 µM.

On to `O=C(NC1CC1)c1ccc(-c2cnc3c(NCCCO)nc4cc(F)c(F)cc4n23)cc1` [Example 2-100, N-cyclopropyl-4-{7,8-difluoro-4-[(3-hydroxypropyl)amino]imidazo[1,2-a]quinoxalin-1-yl}benzamide], for which the IC50 turned out to be 0.0753 µM.

`O=C(NC1CC1)c1ccc(-c2cnc3c(NCc4ccc(F)cc4)nc4cc(F)c(F)cc4n23)cc1Cl` [Example 2-128, 2-chloro-N-cyclopropyl-4-{7,8-difluoro-4-[(4-fluorobenzyl)amino]imidazo[1,2-a]quinoxalin-1-yl}benzamide]: the IC50 turned out to be 17.3 µM.

On to `CC(C)CNc1nc2ccccc2n2c(-c3cccnc3)cnc12` [Example 1-32, N-(2-methylpropyl)-1-(pyridin-3-yl)imidazo[1,2-a]quinoxalin-4-amine], for which the IC50 amounted to 18.9 µM.

Turning to `Cn1cc(CNc2nc3cc(C#N)ccc3n3c(-c4ccc(C(=O)NC5CC5)c(Cl)c4)cnc23)cn1` [Example 2-253, 2-chloro-4-(7-cyano-4-{[(1-methyl-1H-pyrazol-4-yl)methyl]amino}imidazo[1,2-a]quinoxalin-1-yl)-N-cyclopropylbenzamide], the 50% inhibitory concentration (IC50) was 1.22 µM. The value for `O=C(NC1CC1)c1ccc(-c2cnc3c(NCCc4ccc(F)cc4)nc4ccccc4n23)cc1` [Example 2-35, N-cyclopropyl-4-(4-{[2-(4-fluorophenyl)ethyl]amino}imidazo[1,2-a]quinoxalin-1-yl)benzamide] was 0.539 µM; that for `O=C(NC1CC1)c1ccc(-c2cnc3c(NCCc4ccccc4)nc4ccccc4n23)cc1` [Example 2-8, N-cyclopropyl-4-{4-[(2-phenylethyl)amino]imidazo[1,2-a]quinoxalin-1-yl}benzamide] was 0.169 µM; that for `CNC(=O)Nc1ccc(-c2cnc3c(NCCCN4CCCC4=O)nc4cc(F)c(F)cc4n23)cc1` [Example 2-115, 1-[4-(7,8-difluoro-4-{[3-(2-oxopyrrolidin-1-yl)propyl]amino}imidazo[1,2-a]quinoxalin-1-yl)phenyl]-3-methylurea] was 16.1 µM.

`Cc1cc2nc(NCCC(C)C)c3ncc(-c4ccc(C(=O)NC5CC5)cc4)n3c2cc1C` [Example 2-145, N-cyclopropyl-4-{7,8-dimethyl-4-[(3-methylbutyl)amino]imidazo[1,2-a]quinoxalin-1-yl}benzamide]: the IC50 came to 0.00561 µM. The value for `CC(C)CCNc1nc2cc(C#N)ccc2n2c(-c3ccc(C(=O)NC4CC4)c(Cl)c3)cnc12` [Example 2-237, 2-chloro-4-{7-cyano-4-[(3-methylbutyl)amino]imidazo[1,2-a]quinoxalin-1-yl}-N-cyclopropylbenzamide] was 0.6 µM; that for `Cc1cc2nc(NCCCO)c3ncc(-c4ccc(C(=O)NC5CC5)cc4)n3c2cc1C` [Example 2-148, N-cyclopropyl-4-{4-[(3-hydroxypropyl)amino]-7,8-dimethylimidazo[1,2-a]quinoxalin-1-yl}benzamide] was 0.00592 µM; that for `CNC(=O)Nc1ccc(-c2cnc3c(NCC(O)CO)nc4ccc(F)cc4n23)cc1` (centres unmarked) [Example 2-74, 1-(4-{4-[(2,3-dihydroxypropyl)amino]-8-fluoroimidazo[1,2-a]quinoxalin-1-yl}phenyl)-3-methylurea] was 10.1 µM. As to `CNC(=O)Nc1ccc(-c2cnc3c(NCc4ccncc4)nc4ccc(F)cc4n23)cc1` [Example 2-69, 1-(4-{8-fluoro-4-[(pyridin-4-ylmethyl)amino]imidazo[1,2-a]quinoxalin-1-yl}phenyl)-3-methylurea], the IC50 is 3.7 µM.
